Where a SMILES comes first, the peptide text is derived from it. Bridges are numbered along the chain shown (N, C = ends). [ ]: non-standard residue; d: D form. R8 = C=CCCCCCC[C@@](C)(N)C(=O)O; S5 = C=CCCC[C@](C)(N)C(=O)O
How the values were obtained:
[1] = 28-day toxicity study: survival, NOAEL; type: in vivo, CD-1 mice; conditions: for Survival (%): after 28 days, N = 10
Protocol: (§1) Toxicology was performed by IITRI. The study was conducted in compliance with the US Food and Drug Administration (FDA) good laboratory practice (GLP) Regulations (Code of Federal Regulations Title 21 Part 58) to evaluate the toxicokinetics, local tolerability, immunogenicity, and potential toxicity of SAH5-EJ1 following three times per week intravenous (IV) dosing for 28 days in mice. Male and female CD-1 IGS [Crl:CD1(ICR)] mice (135 per sex) were received from Wilmington, MA-based Charles River Laboratories, Inc.’s Kingston facility (Stone Ridge, NY).
Finally, we confirmed the maximum tolerated dose of SAH5-EJ1, evaluating 5, 10, and 15 mg/kg body weight dosages (Table S3, Additional file 1). […] At 15 mg/kg, one male animal died from unknown causes and was classified as an accidental death. Therefore, 10 mg/kg was considered the no-observed-adverse-effect level (NOAEL). […] Increased spleen weights observed in 10 mg/kg and 15 mg/kg-treated mice most likely resulted from extramedullary hematopoiesis, also known as “blueberry muffin baby syndrome”, an asymptomatic event in which red blood cells accumulate outside of the bone marrow (Table S5, Additional file 1). Increased spleen size is likely due to an increase red blood cell production associated with IV injection-affiliated cell death. Clinical chemistry panels indicate that despite the high concentration of SAH5-EJ1 in the liver, liver function is not inhibited, with normal ranges of ALT/AST and total bilirubin (Table 2).
Male (M) and Female (F) mice. Not including mice for recovery study (additional 10 mice/sex), toxicokinetics (56 mice/sex), or immunogenicity (18 mice/sex). Accidental male deaths on day 27/28 at 5mg/kg dosage and day 22/28 at 15 mg/kg dosage. Female death on day 3/28 at 15mg/kg dosage with hypoactivity noted on day 1.

[2] = 28-day toxicity study: injection site reactogenicity; type: in vivo, CD-1 mice; conditions: for Injection site reactogenicity: Animals with Signs: 28-day study
Protocol: as §1
Response measured at 6 and 24 hours post-injection.

## CC[C@H](C)[C@H](NC(=O)[C@H](Cc1c[nH]cn1)NC(=O)[C@H](CCCNC(=N)N)NC(=O)[C@H](CCCNC(=N)N)NC(=O)[C@H](CCCNC(=N)N)NC(=O)[C@H](CCSC)NC(=O)[C@H](Cc1ccccc1)NC(=O)[C@H](C)NC(=O)[C@H](CCCNC(=N)N)NC(=O)[C@H](C)NC(=O)[C@H](CCC(N)=O)NC(=O)[C@H](CCCNC(=N)N)NC(=O)[C@H](C)NC(=O)[C@H](C)NC(=O)[C@H](C)NC(=O)[C@H](CCCNC(=N)N)NC(=O)[C@H](C)NC(=O)[C@@H](N)Cc1ccc(O)cc1)C(=O)N[C@H](C(=O)N[C@@H](CCCNC(=N)N)C(=O)N[C@@H](CCCCN)C(=O)N[C@@H](CCCNC(=N)N)C(=O)N[C@]1(C)CCCCCCC=CCCC[C@@](C)(C(=O)N[C@@H](CCCNC(=N)N)C(=O)N[C@@H](CCC(=O)O)C(N)=O)NC(=O)[C@H](CCC(N)=O)NC(=O)[C@H](CC(C)C)NC(=O)[C@H](CC(C)C)NC(=O)[C@H](CCCNC(=N)N)NC(=O)[C@H](CCCNC(=N)N)NC(=O)[C@H](CC(C)C)NC1=O)C(C)C [SAH5-EJ1] (H-YARAAARQARAFMRRRHIVRKR[R8]LRRLLQ[S5]RE-NH2; staple 23-30)
[1]; 5, 10 and 15 mg/kg IV, 28-day repeat toxicity study
  systemic or target organ toxicity: no evidence of any systemic or target organ toxicity
[1]; both sexes, CD-1, mouse, in vivo, IV three times per week, 28 days, mice, read-out: no-observed-adverse-effect level (NOAEL)
  NOAEL at 672 h: 10 mg/kg
[1]; female, 5 mg/kg
  Survival (%): 100%
[1]; female, 10 mg/kg
  Survival (%): 100%
[1]; female, 15 mg/kg
  Survival (%): 90%
[1]; male, 5 mg/kg
  Survival (%): 90%
[1]; male, 10 mg/kg
  Survival (%): 100%
[1]; male, 15 mg/kg
  Survival (%): 90%
[2]; female, 5 mg/kg, 10 examined
  Edema (animals): 10
  Edema: 0 - Normal, no swelling (animals): 10
  Edema: 1 - Minimal, slight swelling (animals): 5
  Edema: 2 - Mild, defined swelling (animals): 0
  Edema: 3 - Moderate, defined swelling, raised border (animals): 0
  Erythema and Eschar Formation (animals): 10
  Erythema and Eschar: 0 - Normal (animals): 10
  Erythema and Eschar: 1 - Minimal (animals): 4
  Erythema and Eschar: 2 - Mild, bright pink/pale, distinct (animals): 4
  Erythema and Eschar: 3 - Moderate, bright red, distinct (animals): 0
  Erythema and Eschar: 4 - Severe, dark red, pronounced (animals): 1
  Injection site reactogenicity: Animals with Signs: 10
[2]; female, 10 mg/kg, 10 examined
  Edema (animals): 10
  Edema: 0 - Normal, no swelling (animals): 10
  Edema: 1 - Minimal, slight swelling (animals): 10
  Edema: 2 - Mild, defined swelling (animals): 3
  Edema: 3 - Moderate, defined swelling, raised border (animals): 0
  Erythema and Eschar Formation (animals): 10
  Erythema and Eschar: 0 - Normal (animals): 10
  Erythema and Eschar: 1 - Minimal (animals): 10
  Erythema and Eschar: 2 - Mild, bright pink/pale, distinct (animals): 7
  Erythema and Eschar: 3 - Moderate, bright red, distinct (animals): 5
  Erythema and Eschar: 4 - Severe, dark red, pronounced (animals): 2
  Injection site reactogenicity: Animals with Signs: 10
[2]; female, 15 mg/kg, 15 examined
  Edema (animals): 15
  Edema: 0 - Normal, no swelling (animals): 15
  Edema: 1 - Minimal, slight swelling (animals): 14
  Edema: 2 - Mild, defined swelling (animals): 12
  Edema: 3 - Moderate, defined swelling, raised border (animals): 1
  Erythema and Eschar Formation (animals): 15
  Erythema and Eschar: 0 - Normal (animals): 15
  Erythema and Eschar: 1 - Minimal (animals): 10
  Erythema and Eschar: 2 - Mild, bright pink/pale, distinct (animals): 14
  Erythema and Eschar: 3 - Moderate, bright red, distinct (animals): 5
  Erythema and Eschar: 4 - Severe, dark red, pronounced (animals): 6
  Injection site reactogenicity: Animals with Signs: 15
[2]; male, 5 mg/kg, 10 examined
  Edema (animals): 10
  Edema: 0 - Normal, no swelling (animals): 10
  Edema: 1 - Minimal, slight swelling (animals): 7
  Edema: 2 - Mild, defined swelling (animals): 0
  Edema: 3 - Moderate, defined swelling, raised border (animals): 0
  Edema: 4 - Severe, pronounced swelling, raised border (animals): 0
  Erythema and Eschar Formation (animals): 10
  Erythema and Eschar: 0 - Normal (animals): 10
  Erythema and Eschar: 1 - Minimal (animals): 3
  Erythema and Eschar: 2 - Mild, bright pink/pale, distinct (animals): 2
  Erythema and Eschar: 3 - Moderate, bright red, distinct (animals): 0
  Erythema and Eschar: 4 - Severe, dark red, pronounced (animals): 1
  Injection site reactogenicity: Animals with Signs: 10
[2]; male, 10 mg/kg, 10 examined
  Edema (animals): 10
  Edema: 0 - Normal, no swelling (animals): 10
  Edema: 1 - Minimal, slight swelling (animals): 8
  Edema: 2 - Mild, defined swelling (animals): 7
  Edema: 3 - Moderate, defined swelling, raised border (animals): 1
  Edema: 4 - Severe, pronounced swelling, raised border (animals): 1
  Erythema and Eschar Formation (animals): 10
  Erythema and Eschar: 0 - Normal (animals): 10
  Erythema and Eschar: 1 - Minimal (animals): 6
  Erythema and Eschar: 2 - Mild, bright pink/pale, distinct (animals): 8
  Erythema and Eschar: 3 - Moderate, bright red, distinct (animals): 4
  Erythema and Eschar: 4 - Severe, dark red, pronounced (animals): 2
  Injection site reactogenicity: Animals with Signs: 10
[2]; male, 15 mg/kg, 15 examined
  Edema (animals): 15
  Edema: 0 - Normal, no swelling (animals): 15
  Edema: 1 - Minimal, slight swelling (animals): 14
  Edema: 2 - Mild, defined swelling (animals): 14
  Edema: 3 - Moderate, defined swelling, raised border (animals): 7
  Edema: 4 - Severe, pronounced swelling, raised border (animals): 2
  Erythema and Eschar Formation (animals): 15
  Erythema and Eschar: 0 - Normal (animals): 15
  Erythema and Eschar: 1 - Minimal (animals): 11
  Erythema and Eschar: 2 - Mild, bright pink/pale, distinct (animals): 15
  Erythema and Eschar: 3 - Moderate, bright red, distinct (animals): 10
  Erythema and Eschar: 4 - Severe, dark red, pronounced (animals): 6
  Injection site reactogenicity: Animals with Signs: 15
